Test results: patent US10844141B2, “Process for obtaining polysaccharides from jatoba (Hymenea courbaril l ) seeds, cosmetic composition comprising said polysaccharides and uses thereof” (NATURA COSMÉTICOS S.A., priority 2008, dated 2020)
“And” between values parts separate entries of the source, which are not always exact repeats. Equal entries are not always repeated.

Experiments:
[1] = test system: human skin fibroblasts in primary culture; experiment: Procollagen potential / collagen synthesis by sirius red stain in culture supernatant; assay type: cell-based; details: TGF positive control, 96 hours; for Normalized Collagen (%) (increase in collagen synthesis): control = 0.00
Method: (§1) Assays were carried out to assess the potential of the polysaccharides obtained in accordance with the present invention in promoting cell proliferation (the increase in the number of cells in relation to a control group not treated with the active ingredient) by analyzing cell viability through neutral red staining. Another object of the assays was to assess the procollagen potential of active ingredients (collagen in excess produced by the cells treated with the active ingredient in relation to the untreated control cells), by detecting the collagen in the culture supernatant through the sirius red stain.
b) Whether or not the presence of the active ingredient induces the cells to produce more collagen per se. To this end, dermis-derived human fibroblasts are incubated with the […](TGF-β), known to induce collagen synthesis and secretion (positive control). Simultaneously, other fibroblasts under the same condition are incubated with the active ingredient being tested. The collagen is identified by the sirius red stain (picrosirius solution), which has affinity for procollagen and collagen molecules. The procollagen potential of each active ingredient is identified by the increase in optical density (absorbance 540 nm filter) measured after the dissolution of the pigments previously absorbed by the collagen present in the culture supernatants.

[2] = test system: human skin fibroblasts in primary culture; experiment: Cell proliferation by neutral red staining (cell viability); assay type: cell-based; details: TGF positive control, 96 hours of incubation, control = 100
Method: as §1
a) Whether or not the presence of a specific active ingredient in the cell culture, for one or more periods, results in an increase in the number of cells in relation to the control group (cells not treated with the same active ingredient). The number of cells is estimated as a function of the cell viability rate, which is monitored by the incubation of fibroblasts with the vital stain neutral red at the end of the assay period (96 h). This stain is incorporated into living cells so that the cell viability rate is given by the intensity of the stain absorbed by the cells in a directly proportional ratio. The colorimetric reading is carried out in a spectrophotometer, at the wavelength of 540 nm.

Substance: tumor growth factor-β [TGF]
- Total Collagen ± standard deviation (optical density) ([1]; control 0.152): 0.224 ± 0.009 Abs
- Normalized Collagen (%) (increase in collagen synthesis) [1]: 98.10%
- Normalized Collagen (%) (increase in collagen synthesis) ([1]; listed as TGF-b): 98.1%
- Collagen (%) after normalization by the viability index ([1]; control = 100.00 (Table 2)): 109.4%
- Normalized Collagen ([1]; normalized by viability index, control = 100.00): 198.10%
- Cell Proliferation [2]: 136.00% and 148.1%
